Values joined by “and” are separate entries in the source; they are usually repeats but may differ in a detail not shown here. Equal values may be shown once.
How the values were obtained:
[1] = tested on: Peripheral blood mononuclear cells (PBMC); assay: PBMC CD69 expression by flow cytometry after OKT3 stimulation (ex vivo); format: cell-based, human; conditions: single individual
Experimental: • 1. Two human male volunteers and one human volunteer (respectively) were administered 100 mg of DA-DKP (packed in a gelatin capsule) orally on an empty stomach after overnight fasting. The DA-DKP was composed of L-aspartic acid and L-alanine. • 2. Venous blood samples were drawn into heparinized and EDTA vacutainers at baseline (time zero), 2 hours (hrs), 4 hrs and 24 hrs after the ingestion of the DA-DKP. • 3. Blood samples were analyzed for a complete blood count (CBC) and a biochemical survey, including plasma lipids at baseline and at the 24 hrs time points. […] Peripheral blood monocytes (PBMC) from heparinized bloods were extracted by Ficoll gradient method and analyzed by flow cytometry. […] Urines were collected for 24 hrs and volumes were recorded. DA-DKP levels were also measured by LCMS. • 6. […] Urine levels of DA-DKP were calculated (see Table 2). • 6. Saliva DA-DKP levels were calculated (see Table 2) • 7. […]
Peripheral blood mononuclear cells (PBMC) were isolated from peripheral blood, and 2,000,000 cells were cultured in DMEM medium with 10% human AB serum plus 2% (final concentration) of anti-T-cell receptor complex antibody OKT3. […] After culture overnight at 37° C. cells were washed, incubated with an anti-CD69 antibody, fixed and analyzed on the flow cytometer for CD69 expression. […]

[2] = DA-DKP LCMS measurement in plasma, urine and saliva after oral dose; format: in vivo, human; conditions: 100 mg oral
Experimental: • 1. Two human male volunteers and one human volunteer (respectively) were administered 100 mg of DA-DKP (packed in a gelatin capsule) orally on an empty stomach after overnight fasting. The DA-DKP was composed of L-aspartic acid and L-alanine. • 2. […] Blood samples were analyzed for a complete blood count (CBC) and a biochemical survey, including plasma lipids at baseline and at the 24 hrs time points. Plasma was also used for measurement of the level of DA-DKP by a liquid chromatography mass spectrometer (LCMS) method (protocol and results given below). • 4. Peripheral blood monocytes (PBMC) from heparinized bloods were extracted by Ficoll gradient method and analyzed by flow cytometry. The protocol and results are given below. • 5. Urines were collected for 24 hrs and volumes were recorded. DA-DKP levels were also measured by LCMS. • 6. Saliva at 2 hrs was tested for the presence of DA-DKP by LCMS. Summary of Results: • 1. CBC's were unchanged and remained within the normal range. • 2. BUN, glucose electrolytes, creatinine, liver function tests, total protein, albumin and calcium were unchanged and within the normal range at 24 hours post ingestion. • 3. […] Urine levels of DA-DKP were calculated (see Table 2). • 6. Saliva DA-DKP levels were calculated (see Table 2) • 7. PBMC results are described below. • 8. Effects noticed by subjects: • a. Significant loss of appetite (lasting 8-9 hrs)—3/3 subjects • b. Slight dry mouth—2/3 subjects • c. Thick saliva—1/3 subjects • d. […] Laxative effect—1/3 subjects • f. Slight drowsiness—1/3 subjects * Analgesic Effect:
Plasma or urines were passed through a <5 Kd filter and 50 μl of the flow-through fractions were injected into high performance liquid chromatography (HPLC, 2975 system, Waters, Mass.) coupled to a mass spectrometer (LCT-TOF, Micromass, UK) and DA-DKP was quantified using a strong anion exchange column (Spherisorb, S5 SAX 250 mm×4.0 mm, Waters) and a ternary mobile phase consisting of water, methanol and 200 mM Ammonium Formate (Sigma Aldrich, Mo.), pH 5.4, at 0.5 ml/min flow rate in a gradient as shown in Table A.
The output of the HPLC was split 1:20 (v:v) and injected into the mass spectrometer using negative electrospray ionization (−ESI MS) with a scan range of 80 to 1000 m/z, cone voltage of 30 eV, source temperature of 100° C., and gas temperature of 300° C. DA-DKP was measured by monitoring the mass 185 in time, which corresponds to DA-DKP minus a single proton (—H+). DA-DKP elutes at 10.4 minutes and was quantified by integrating the area under the curve. The area was compared to a standard curve derived from synthetic DA-DKP standards (DMI Synthesis, Newport Wales, UK) of known concentrations (2000 ng/ml, 1000 ng/ml, 400 ng/ml, 200 ng/ml, 100 ng/ml, 20 ng/ml).

[3] = tested on: interleukin-6 (IL-6); assay: IL-6 ELISA of preadipocyte culture media; format: cell-based; conditions: after the 2 week differentiation period (data not shown)
Experimental: 7-day old medium was aspirated and cells were dosed with DA-DKP (doses used in PGM-2 media: 25, 50, or 100 μM) in triplicate on two plates. The DA-DKP was composed of L-aspartic acid and L-alanine. PGM-2 differentiation media (containing insulin, dexamethasone, indomethacin, and isobutyl-methylxanthine; Lonza) was added to one plate, while PGM-2 media was added to the other. Plates were then placed back in culture and allowed to incubate for 14 days.
After the 14 day incubation period, culture media were collected from all wells and stored at −20° C. for IL-6 ELISA (see below). Wells were rinsed once with 1×PBS (Lonza). 50 μL M-PER lysis solution (Thermo Scientific, Rockford, Ill.) were added to all wells, and complete cell lysis was achieved by mixing each well. 150 μL 1×PBS was added to each well. 5 μL AdipoRed™ Reagent (Lonza) was added to each well, and the plate was mixed immediately by gentle tapping. After 10 minutes, fluorescence was measured on a plate reader set at λEX=485 nm and λEM=572 nm.
Enzyme-linked immunosorbent assay (ELISA) matched-pair antibodies for interleukin-6 (IL-6) were obtained from Thermo Scientific (Rockford, Ill.). IL-6 was analyzed by ELISA and performed according to the manufacturer's instructions. A 1:10 dilution of each supernatant was measured in duplicate using an IL-6 standard (Thermo Scientific, Rockford, Ill.).

[4] = tested on: MAPK; conditions: reference 12; cited from earlier work
[5] = Effects noticed by subjects after oral DA-DKP (appetite, analgesia, side effects); format: in vivo, human; conditions: 100 mg oral
Experimental: • 1. Two human male volunteers and one human volunteer (respectively) were administered 100 mg of DA-DKP (packed in a gelatin capsule) orally on an empty stomach after overnight fasting. The DA-DKP was composed of L-aspartic acid and L-alanine. • 2. Venous blood samples were drawn into heparinized and EDTA vacutainers at baseline (time zero), 2 hours (hrs), 4 hrs and 24 hrs after the ingestion of the DA-DKP. • 3. Blood samples were analyzed for a complete blood count (CBC) and a biochemical survey, including plasma lipids at baseline and at the 24 hrs time points. Plasma was also used for measurement of the level of DA-DKP by a liquid chromatography mass spectrometer (LCMS) method (protocol and results given below). • 4. Peripheral blood monocytes (PBMC) from heparinized bloods were extracted by Ficoll gradient method and analyzed by flow cytometry. The protocol and results are given below. • 5. Urines were collected for 24 hrs and volumes were recorded. DA-DKP levels were also measured by LCMS. • 6. Saliva at 2 hrs was tested for the presence of DA-DKP by LCMS. Summary of Results: • 1. CBC's were unchanged and remained within the normal range. • 2. BUN, glucose electrolytes, creatinine, liver function tests, total protein, albumin and calcium were unchanged and within the normal range at 24 hours post ingestion. • 3. […] Urine levels of DA-DKP were calculated (see Table 2). • 6. Saliva DA-DKP levels were calculated (see Table 2) • 7. PBMC results are described below. • 8. Effects noticed by subjects: • a. Significant loss of appetite (lasting 8-9 hrs)—3/3 subjects • b. Slight dry mouth—2/3 subjects • c. Thick saliva—1/3 subjects • d. […] Laxative effect—1/3 subjects • f. Slight drowsiness—1/3 subjects * Analgesic Effect:
One subject had left knee and left Sacroiliac (SI) joint pain. […] The pain originates probably from inflammation caused by sarcoidosis and was 6-7 on a scale of 1-10 before treatment. The effect lasted for about 4 hrs.

[6] = tested on: platelets; conditions: U.S. Pat. Nos. 6,555,543 and 7,732,403; cited from earlier work
[7] = tested on: endothelial cells; conditions: provisional application No. 61/380,404; cited from earlier work
[8] = Plasma lipids after a single oral dose of DA-DKP in human volunteers; format: in vivo; conditions: 100 mg oral; all three subjects
Experimental: (§1) • 1. Two human male volunteers and one human volunteer (respectively) were administered 100 mg of DA-DKP (packed in a gelatin capsule) orally on an empty stomach after overnight fasting. The DA-DKP was composed of L-aspartic acid and L-alanine. • 2. Venous blood samples were drawn into heparinized and EDTA vacutainers at baseline (time zero), 2 hours (hrs), 4 hrs and 24 hrs after the ingestion of the DA-DKP. • 3. Blood samples were analyzed for a complete blood count (CBC) and a biochemical survey, including plasma lipids at baseline and at the 24 hrs time points. Plasma was also used for measurement of the level of DA-DKP by a liquid chromatography mass spectrometer (LCMS) method (protocol and results given below). • 4. Peripheral blood monocytes (PBMC) from heparinized bloods were extracted by Ficoll gradient method and analyzed by flow cytometry. The protocol and results are given below. • 5. Urines were collected for 24 hrs and volumes were recorded. DA-DKP levels were also measured by LCMS. • 6. Saliva at 2 hrs was tested for the presence of DA-DKP by LCMS. Summary of Results: • 1. CBC's were unchanged and remained within the normal range. • 2. […] Urine levels of DA-DKP were calculated (see Table 2). • 6. Saliva DA-DKP levels were calculated (see Table 2) • 7. […]

[9] = tested on: Subcutaneous preadipocytes; assay: Adipogenesis assay (AdipoRed fluorescence); format: cell-based; conditions: 14 days differentiation
Experimental: Subcutaneous preadipocytes (Zen-Bio, Inc., Research Triangle Park, N.C.) were cultured to near confluency at 5% CO2, 37° C. in Preadipocyte Growth Medium-2 (PGM-2, Lonza, Walkersville, Md.) containing 10% fetal bovine serum (FBS), L-glutamine, and GA-1000. Cells were harvested using trypsin/EDTA (Lonza) and initially seeded in 96-well black/clear bottom plates at 3,000 cells/well. Cells were allowed to form a confluent monolayer for 7 days in culture.
7-day old medium was aspirated and cells were dosed with DA-DKP (doses used in PGM-2 media: 25, 50, or 100 μM) in triplicate on two plates. The DA-DKP was composed of L-aspartic acid and L-alanine. […]
After the 14 day incubation period, culture media were collected from all wells and stored at −20° C. for IL-6 ELISA (see below). […] After 10 minutes, fluorescence was measured on a plate reader set at λEX=485 nm and λEM=572 nm.
The triplicate fluorescent values for each treatment were averaged and subtracted from the average media only (i.e. no cells) wells. For the differentiated wells, a % change was calculated by subtracting the average fluorescent value for the differentiated cells from the undifferentiated cells for each treatment group. […] All data are expressed as ±SD. […]

[10] = Complete blood count and biochemical survey after oral DA-DKP; format: in vivo; conditions: 100 mg oral, human
Experimental: as §1

[11] = tested on: vascular endothelial barrier; conditions: provisional application No. 61/380,404; cited from earlier work
[12] = tested on: T-cells; conditions: U.S. Pat. Nos. 6,555,543 and 7,732,403; cited from earlier work

SMILES: C[C@@H]1NC(=O)[C@H](CC(=O)O)NC1=O [DA-DKP]
- Time of greatest effect on CD69 expression ([1]; after DA-DKP ingestion): 4 h
- CD69 expression on CD45RA and CD45RO cells ([1]; after ingestion of DA-DKP vs time zero, OKT3 stimulation): decreased
- DA-DKP plasma level at 24 hrs post ingestion ([2]; human): not detectable
- Time of peak DA-DKP plasma level ([2]; human): about 2 hrs
- DA-DKP in plasma, 15 min ([2]; 15 min, per human subject): 0.14 µM
- DA-DKP in plasma, 30 min ([2]; 30 min, per human subject): 0.35 µM
- DA-DKP in plasma, 60 min ([2]; 60 min, per human subject): 0.84 µM
- DA-DKP in plasma, 240 min ([2]; 240 min, per human subject): 0.25 µM and 0.34 µM
- DA-DKP in plasma, 360 min ([2]; 360 min, per human subject): 0.61 µM
- DA-DKP in Saliva 2 hrs ([2]; saliva at 2 hrs, per human subject): 0.22 µM and 0.29 µM
- DA-DKP in Urine 24 hrs ([2]; urine collected for 24 hrs, per human subject): 4.25 µM and 6.98 µM and 3.52 µM
- Effect on IL-6 levels [3]: no significant effect
- MAPK activity in T-lymphocytes [4]: inhibitory effect
- Duration of loss of appetite ([5]; human): 8 to 9 h
- Laxative effect, subjects affected ([5]; human): 1/3
- Significant loss of appetite, subjects affected ([5]; human): 3/3
- Slight drowsiness, subjects affected ([5]; human): 1/3
- Slight dry mouth, subjects affected ([5]; human): 2/3
- Thick saliva, subjects affected ([5]; human): 1/3
- Analgesic effect, subjects affected ([5]; human, others did not have pain): 1/3
- Duration of analgesic effect ([5]; one subject): about 4 hrs
- Reduction of SI joint pain ([5]; one subject): about 50%
- Time to analgesic effect after ingestion ([5]; one subject): 1 to 2 h
- Left knee pain ([5]; one subject, pain 6-7 on a scale of 1-10 before treatment): resolved completely
- Aggregation of platelets [6]: inhibit
- Cytoskeletal network in endothelial cells [7]: stabilize
- Lipids at 24 hours post ingestion [8]: decreased across the board
- Effect on adipogenesis ([9]; 25 μM): significant decrease
- Effect on adipogenesis ([9]; 100 μM): increase
- BUN, glucose electrolytes, creatinine, liver function tests, total protein, albumin and calcium ([10]; 24 hours post ingestion, within the normal range): unchanged
- CBC ([10]; remained within the normal range): unchanged
- Vascular hyperpermeability [11]: inhibit
- Activation of T-cells [12]: inhibit

Source: patent US9034878B2, “Treatment of diseases” (Ampio Pharmaceuticals, Inc., priority 2010, dated 2015)
